Experimental data as given in patent US20200223840A1, “SUBSTITUTED PYRROLIDINE AMIDES III” (Gruenenthal GMBH, priority 2019, published 2020).

Biological target: T1, human glucocorticoid receptor (Homo sapiens, UniProt P04150)
T1 construct: host or cells: IM9 human lymphoblast cells, cytosol fraction
T1 sequence (P04150 1-777): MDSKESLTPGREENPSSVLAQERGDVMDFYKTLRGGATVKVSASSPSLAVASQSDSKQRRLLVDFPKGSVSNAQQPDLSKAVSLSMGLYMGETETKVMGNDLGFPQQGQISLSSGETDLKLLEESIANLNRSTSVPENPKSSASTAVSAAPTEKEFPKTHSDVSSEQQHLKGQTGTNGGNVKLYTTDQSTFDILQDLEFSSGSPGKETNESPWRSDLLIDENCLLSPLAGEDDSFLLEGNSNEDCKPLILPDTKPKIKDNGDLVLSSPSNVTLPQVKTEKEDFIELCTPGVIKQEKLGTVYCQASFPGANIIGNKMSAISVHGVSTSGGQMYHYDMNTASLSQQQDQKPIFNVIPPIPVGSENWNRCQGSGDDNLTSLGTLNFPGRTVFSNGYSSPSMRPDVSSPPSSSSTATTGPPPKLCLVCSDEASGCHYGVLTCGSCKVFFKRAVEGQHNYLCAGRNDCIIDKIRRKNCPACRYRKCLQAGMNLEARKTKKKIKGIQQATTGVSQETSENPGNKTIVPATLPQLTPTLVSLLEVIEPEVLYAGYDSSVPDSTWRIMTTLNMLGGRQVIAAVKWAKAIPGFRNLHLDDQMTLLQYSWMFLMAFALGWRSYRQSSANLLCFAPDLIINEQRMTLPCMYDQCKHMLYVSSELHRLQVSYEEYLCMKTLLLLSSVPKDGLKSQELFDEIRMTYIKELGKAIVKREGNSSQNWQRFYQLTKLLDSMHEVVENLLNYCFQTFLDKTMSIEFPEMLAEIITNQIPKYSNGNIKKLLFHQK
Experiment: Human glucocorticoid receptor (hGR) ligand-binding assay, 3H-dexamethasone, IM9 cytosol
Conditions: read-out: % inhibition hGR at 1 μM
Method: Preferably, the glucocortitcoid receptor extracted from cytosol of IM9 cells is used for competitive radioligand binding assays to calculate percentage inhibition of the binding of radiolabeled ligand 3H-dexamethasone at the human glucocorticoid receptor.
The human lymphoblast cell line IM9 (ATCC, Bethesda, Md.) was cultivated in RPMI 1640 media containing 10% fetal bovine serum, penicillin (100 U/ml), streptomycin (100 μg/ml), and 2 mM L-glutamine at […] and 7% CO2 in a humidified incubator. Cells were centrifuged for 10 minutes at 1500 g and were washed in PBS and repelleted. Cell were then resuspended in homogenization buffer consisting of: 10 mM TES, 10 mM sodium molybdate, 1 mM EDTA, pH 7.4, 20 mM 2-mercaptoethanol, and 10% glycerol. Disruption of the cells was performed by nitrogen cavitation using 2×15 minutes at 600 to 750 psi nitrogen in a N2 cavitator at 0° C. The cell preparation was then centrifuged at 27,000 g for 15 minutes, and the resultant supernatant (=cytosol of IM9 cells) was centrifuged at 103,000 g for 60 minutes at 4° C. The amount of protein in the supernatant fraction was determined using a BCA assay kit and aliquots were snap frozen in a dry ice-acetone bath and stored at −70° C. […] 100 μl of the supernatant) was finally assayed for radioactivity by liquid scintillationspectrometry, and percentage inhibition of 3H-dexamethasone binding was calculated.

Work on Cc1cnc(C(=O)N[C@H]2[C@H](c3ccccc3)N(c3ccc4c(cnn4-c4ccc(=O)n(C)c4)c3)C(=O)C2(C)C)s1 [Example 26, N-[(2S,3R)-4,4-Dimethyl-1-[1-(1-methyl-6-oxo-1H-pyridin-3-yl)-1H-indazol-5-yl]-5-oxo-2-phenyl-pyrrolidin-3-yl]-5-methyl-thiazole-2-carboxylic acid amide] yielded an inhibition at 1 µM of 28%.
